Test results from publication PMC4433340 (PLoS Neglected Tropical Diseases, 2015).
Where two headings read alike, the source gives them in different places.

Tests used:
Trypomastigotes Dm28c = test: Parasite viability by MTT reduction assay, trypomastigotes; format: cell-based; conditions: Trypanosoma cruzi, read-out: IC50, cellular viability, Trypomastigotes Dm28c
Description: T. cruzi trypomastigotes (Dm28c clone) from our collection, were obtained from infected EA.hy926 cells. Cells were exposed to trypomastigotes (Dm28c clone) at a multiplicity of infection (MOI) of 5. Trypomastigotes were allowed to infect cells for 24 hours, after which the supernatant was removed and fresh medium was added. Trypomastigotes were released from EA.hy926 cells after four days of infection. The parasites were harvested and collected for viability assays and further cell infections.
The effect of the drug on all cells and parasite viability was evaluated through the tetrazolium salt (MTT, Sigma-Aldrich) reduction assay as described. Drugs at concentrations ranging from 1 to 20 μM, dissolved in DMSO at a 0.025% v/v final concentration, were applied to 2.5x10^5 cells/mL or 10^6 parasite/mL culture medium. Cultures were incubated for 24 hours before adding MTT for 4 hours. The plates were incubated overnight with 10% SDS w/v in 0.01 M HCl at 37°C, and optical density (OD) was determined using a microplate reader (Labsystems Multiskan MS, Finland) at 570 nm. Under these conditions, the OD was directly proportional to viable cell number per well. All of the experiments were performed at least three times, and the data are shown as the means and their standard deviations from triplicate cultures.

[1] = test system: total E-selectin, ICAM-1 and VCAM-1 protein in T. cruzi-infected endothelial cells; test: Total ECAM protein by Western blot; format: cell-based, human; conditions: 5 μM simvastatin or 20 μM benznidazole for 24 hours before 16 hours infection
Description: 5x10^5 endothelial cells were rinsed once with PBS and scraped. Proteins were extracted into 100 μL RIPA buffer plus a protease and phosphatase inhibitor cocktail (Radio-Immunoprecipitation Assay; Millipore Corporation, USA) at 4°C. Total protein was quantified with the Lowry assay. Samples in loading buffer (10% SDS, 50% glycerol, 0.5 M Tris, 0.1% bromophenol blue, and 1 M dithiothreitol, pH 6.8) were electrophoretically separated by 10% SDS-PAGE and transferred to a nitrocellulose membrane. Nitrocellulose membranes were incubated with blocking solution (5% w/v nonfat dry milk, 0.1% Tween-20 in Tris-buffered saline) at room temperature for 1 hour. Then, the membranes were incubated at 4°C overnight with 1 mL solution of primary antibodies against E-selectin (1:1000) and α-Tubulin (1:10.000) from Sigma-Aldrich, ICAM-1 (1:2000) and VCAM-1 (1:1000) from Abcam, 7 ml solution of p-IKK (1:1000), IKK (1:1000), p-IκB (1:1000) and IκB (1:1000) from Cell signaling (Cell Signaling Technologies, USA). Bound antibodies were detected with horseradish peroxidase-conjugated secondary antibodies and visualized by Lumminata forte (Millipore). The nitrocellulose was stripped between reprobes using Mild stripping (Millipore) for 10 minutes. Developed films were scanned, and band densitometry was analyzed using ImageJ software (ImageJ 1.47v).

[2] = test system: HL-60 leukocyte adhesion to T. cruzi-infected endothelial cells; test: Leukocyte-endothelium cell adhesion assay; format: cell-based, human; conditions: 5 μM simvastatin or 20 μM benznidazole for 24 hours before 16 hours infection; HL-60 leukocytes
Description: The leukocyte adhesion assay was performed with the Cytoselect Leukocyte-Endothelium Adhesion Assay kit (CBA-210; Cell Biolabs, USA). Briefly, EA.hy926 cells were cultured in 96-well plates that had been previously coated with gelatin for 1 hour. […] LeukoTracker-labeled leukocytes (HL60 cells) were added to the monolayer and incubated for 90 min. After thorough washing, cells were lysed, and fluorescence was measured at 480 nm excitation/520 nm emission. The percentage of adherent leukocytes was calculated: % adherence = adherent signal/total signal. All of the determinations were performed in triplicate using a fluorescence microplate reader (Varioskan, Thermo Scientific).

[3] = test system: 15-epi-lipoxin A4 production by EA.hy926 cells; test: 15-epi-lipoxin A4 determination by ELISA in culture supernatants; format: cell-based, human; conditions: ELISA (Fig 7A); for 15-epi-LXA4 production in T. cruzi-infected endothelial cells: EA.hy926 infected 16 hours, drug added afterwards
Description: 8x10^5 EA.hy926 cells/well were cultured in 6-well plates (IMDM 10% SFB). […] 15-epi-LXA4 determination was performed by:
• ELISA assay: the supernatant from the cell cultures was assayed using a 15-epi-LXA4 BioAssay ELISA Kit (USBiological, USA) following manufacturer’s instructions. • AxION DSA—TOF MS determination: To determine 15-epi-lipoxin A4 levels in EAhy926 cell culture supernatants, an AxION Direct Sample Analysis (DSA) that was integrated with an AxION 2 time-of-flight (TOF) mass spectrometer (PerkinElmer, Shelton, CT, USA) was employed. For extraction, all of the samples were loaded onto a solid phase extraction and eluted with 1 mL chloroform three times successively. Then, the samples were transferred into a clean tube, and the chloroform in the samples was evaporated in a water bath. Finally, the samples were resuspended in 100 μL ethanol, and 10 μL were pipetted onto a stainless mesh. For the calibration curve, 15-epi-lipoxin A4 (cat#90415, Cayman Chemical, USA) was diluted in PBS to achieve different final concentrations (see S1 Fig). From each tube, 10 μL was pipetted onto a stainless mesh, and DSA—TOF determination was performed. The AxION DSA conditions were as follows: 5 μA corona current, 250°C heater temperature, 80 psi auxiliary gas (N2) pressure, 4 L/min drying gas (N2) flow, and 25°C drying gas (N2) temperature. […] Mass spectra were acquired with a mass range of 100–1000 m/z and an acquisition rate of 2 spectra/sec. To maintain mass accuracy, […] lock mass ions were used (m/z 119.0400, m/z 556.0000 and m/z 805.9900). All of the samples were analyzed for only 10 sec. The standards used were 15-epi-lipoxin A4 (cat#90415, Cayman Chemical,) and 5(S),6(R)-Lipoxin A4 methyl ester (cat#10033, Cayman Chemical) as an internal standard. These were confirmed in seconds by accurate mass and isotopic distribution of parent and fragment ions using DSA/TOF and AxION software, and compound identification was performed using the standards. All of the samples were analyzed in triplicate.

Compound | IC50 (Trypomastigotes Dm28c; MTT assay, 24 hours incubation, mean ± SD, n = 3) [µM] | Total cell adhesion molecule protein amount [1] | Leukocyte adhesiveness to infected endothelial cells [2] | 15-epi-LXA4 levels with drug alone ([3]; 5 μM simvastatin, EA.hy926 without T. cruzi) | 15-epi-LXA4 production in T. cruzi-infected endothelial cells [3] | IC50 (Trypomastigotes Dm28c; 24 h) [µM]
CCC(C)(C)C(=O)O[C@H]1C[C@@H](C)C=C2C=C[C@H](C)[C@H](CC[C@@H]3C[C@@H](O)CC(=O)O3)[C@H]21 [Simvastatin] | 4.2 ± 1.06 | decreased cell adhesion molecule amount | adhesiveness decreased | rose slightly | induced 15-epi-LXA4 | –
O=C(Cn1ccnc1[N+](=O)[O-])NCc1ccccc1 [Benznidazole] | – | decreased cell adhesion molecule amount | adhesiveness decreased | – | did not induce | 20.8 ± 1.35
